Here are results for 3 compounds from patent publication US20250140406A1, “CLASSIFYING TUMORS AND PREDICTING RESPONSIVENESS” (Oncocyte Corporation, priority 2022, published 2025).

Test [1] concerns cancer cell lines classified IM, MSL, M. In words: Cancer Therapeutics Response Portal (CTRP) small-molecule sensitivity correlated with IM, MSL and M subtype. Type of test: cell-based. The settings on record: CTRP and PRISM screens; IM class by 101 gene signature. How it is done:
Compound correlations where the correlation was negative, indicating sensitivity to the compound, and with a q value less than 0.05 were assessed.

Test [2] relates to NSCLC cell lines (xenograft models). The settings on record: of the 10 NSCLC cell lines, GSE109302; cited from earlier work.

Each structure is given as a SMILES string.

With `CS(=O)(=O)CCNCc1ccc(-c2ccc3ncnc(Nc4ccc(OCc5cccc(F)c5)c(Cl)c4)c3c2)o1` [lapatinib], in test [1], the “Sensitivity of tumors of the IM class to the compound” value is “especially sensitive”.

In the case of `COc1cc(C(=O)NC2CCN(C)CC2)c(F)cc1Nc1ncc(C(F)(F)F)c(Oc2cccc3c2C(=O)N(C)C3)n1` [BI 853520], in test [2], the “Number of NSCLC cell lines resistant to the drug” value is “five” and the “Number of NSCLC cell lines sensitive to the drug” value is listed as “five”.

In the case of `C=CC(=O)Nc1cc2c(Nc3ccc(F)c(Cl)c3)ncnc2cc1OCCCN1CCOCC1` [canertinib], the “Sensitivity of tumors of the IM class to the compound” value in test [1] is “especially sensitive”.
